Values quoted from earlier work in patent US6184255A, “Pharmaceutical composition comprising coenzyme Q10” (Kaneka Corporation, priority 1996, dated 2001).

Details: oral, considerably greater amount than actually needed

## COC1=C(OC)C(=O)C(C/C=C(\C)CC/C=C(\C)CC/C=C(\C)CC/C=C(\C)CC/C=C(\C)CC/C=C(\C)CC/C=C(\C)CC/C=C(\C)CC/C=C(\C)CCC=C(C)C)=C(C)C1=O [Coenzyme Q10]
  adverse gastrointestinal reactions: adverse gastrointestinal reactions such as epigastric discomfort, anorexia, nausea, and diarrheas
